The results in this text go back to patent US20190029257A1, “APPLICATION FOR HERBICIDE-TOLERANT PROTEIN” (BEIJING DABEINONG TECHNOLOGY GROUP CO., LTD., priority 2016, published 2019).

The assay relates to transgenic maize plants (ALT-1, ALT-2 and ALT-3). Kind of assay: Halosulfuron-methyl tolerance of maize plants. The note with it: summary of Table 4. Format: in vivo. As to the method:
Zm cytoplasmic ALT-1-02 maize plants, Zm chloroplastic ALT-1-02 maize plants, Zm cytoplasmic ALT-2-02 maize plants, Zm chloroplastic ALT-2-02 maize plants, Zm cytoplasmic ALT-3-02 maize plants, Zm chloroplastic ALT-3-02 maize plants and wild-type maize plants were respectively taken and sprayed with halosulfuron-methyl (36 g ai/ha, 4-fold field concentration) and a blank solvent (water). The damage degree caused by the herbicide was measured for each plant according to the plant growth status 3 days after spraying (3 DAT), 7 days after spraying (7 DAT), 14 days after spraying (14 DAT) and 21 days after spraying (21 DAT), respectively: considering a growth status equivalent to that of the untreated plants as having a damage degree of 0%; considering conditions of leaves being partially chlorotic and yellow but substantially not affecting the plant normal growth as having a damage degree of 50%; and considering the whole plant being purple and dying as having a damage degree of 100%. […]

As to `COC(=O)c1c(Cl)nn(C)c1S(=O)(=O)NC(=O)Nc1nc(OC)cc(OC)n1` [halosulfuron-methyl, 3-chlorine-5-(4,6-dimethoxypyrimidine-2-aminocarbonylaminosulphonyl)-1-methylpyrazole-4-carboxylic acid methyl ester], the “tolerance of the plants to the herbicide” value is recorded as “high level of halosulfuron-methyl herbicide tolerance”.
